According to the supplement of paper PMC10307832:

What was measured:
Experiment in all cases: relative viability (nuclei count vs DMSO), 5 days (fraction); higher = more cells survive
[1] = test system: ChaGo-K-1
Outline: (§1)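 After 5 days of treatment, lung cancer cells in 1536-well plates were fixed and stained in a single step (final 0.05% Triton X-100, 1% formaldehyde, 1 ug/ml Hoechst) and their nuclei counted on 4× images. Treatment had been applied by pin tool the day after seeding as one drug alone or as a fixed anchor-drug dose with five library-drug doses (not always all listed) in √10 steps. Relative viability is the nuclei count of treated wells divided by that of vehicle wells, and values are medians of duplicate plates.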

[2] = test system: EKVX
Outline: as §1

[3] = test system: EMC-BAC-2
Outline: as §1

[4] = test system: EPLC-272H
Outline: as §1

[5] = test system: HCC-78
Outline: as §1

[6] = test system: HCC-827
Outline: as §1

[7] = test system: LCLC-103H
Outline: as §1

[8] = test system: LK-2
Outline: as §1

[9] = test system: LU99A
Outline: as §1

[10] = test system: NCI-H1563
Outline: as §1

[11] = test system: NCI-H1666
Outline: as §1

[12] = test system: NCI-H1975
Outline: as §1

[13] = test system: NCI-H2126
Outline: as §1

[14] = test system: NCI-H2342
Outline: as §1

[15] = test system: NCI-H23
Outline: as §1

[16] = test system: NCI-H2405
Outline: as §1

[17] = test system: NCI-H322M
Outline: as §1

[18] = test system: PC-14
Outline: as §1

[19] = test system: RERF-LC-KJ
Outline: as §1

[20] = test system: SK-LU-1
Outline: as §1

[21] = test system: SW 1573
Outline: as §1

[22] = test system: SW 900
Outline: as §1

## COc1cc2nccc(Oc3ccc(NC(=O)Nc4cc(C)on4)c(Cl)c3)c2cc1OC [Tivozanib] + N=C(N)NC(=N)NCCc1ccccc1 [Phenformin] (partner 250 µM)
[1]; first compound 0.005 µM
  relative viability: 0.474
[1]; first compound 0.01581 µM
  relative viability: 0.488
[1]; first compound 0.05 µM
  relative viability: 0.492
[1]; first compound 0.1581 µM
  relative viability: 0.507
[1]; first compound 0.5 µM
  relative viability: 0.433
[2]; first compound 0.005 µM
  relative viability: 0.214
[2]; first compound 0.01581 µM
  relative viability: 0.228
[2]; first compound 0.05 µM
  relative viability: 0.232
[2]; first compound 0.1581 µM
  relative viability: 0.243
[2]; first compound 0.5 µM
  relative viability: 0.236
[3]; first compound 0.005 µM
  relative viability: 0.48
[3]; first compound 0.01581 µM
  relative viability: 0.519
[3]; first compound 0.05 µM
  relative viability: 0.51
[3]; first compound 0.1581 µM
  relative viability: 0.428
[3]; first compound 0.5 µM
  relative viability: 0.441
[4]; first compound 0.005 µM
  relative viability: 0.271
[4]; first compound 0.01581 µM
  relative viability: 0.355
[4]; first compound 0.05 µM
  relative viability: 0.359
[4]; first compound 0.1581 µM
  relative viability: 0.314
[4]; first compound 0.5 µM
  relative viability: 0.239
[5]; first compound 0.005 µM
  relative viability: 0.619
[5]; first compound 0.01581 µM
  relative viability: 0.658
[5]; first compound 0.05 µM
  relative viability: 0.85
[5]; first compound 0.1581 µM
  relative viability: 0.529
[5]; first compound 0.5 µM
  relative viability: 0.655
[6]; first compound 0.005 µM
  relative viability: 0.402
[6]; first compound 0.01581 µM
  relative viability: 0.434
[6]; first compound 0.05 µM
  relative viability: 0.391
[6]; first compound 0.1581 µM
  relative viability: 0.43
[6]; first compound 0.5 µM
  relative viability: 0.452
[7]; first compound 0.005 µM
  relative viability: 0.325
[7]; first compound 0.01581 µM
  relative viability: 0.326
[7]; first compound 0.05 µM
  relative viability: 0.35
[7]; first compound 0.1581 µM
  relative viability: 0.306
[7]; first compound 0.5 µM
  relative viability: 0.348
[8]; first compound 0.005 µM
  relative viability: 0.459
[8]; first compound 0.01581 µM
  relative viability: 0.457
[8]; first compound 0.05 µM
  relative viability: 0.512
[8]; first compound 0.1581 µM
  relative viability: 0.283
[8]; first compound 0.5 µM
  relative viability: 0.199
[9]; first compound 0.005 µM
  relative viability: 0.79
[9]; first compound 0.01581 µM
  relative viability: 0.768
[9]; first compound 0.05 µM
  relative viability: 0.879
[9]; first compound 0.1581 µM
  relative viability: 0.769
[9]; first compound 0.5 µM
  relative viability: 0.755
[10]; first compound 0.005 µM
  relative viability: 0.602
[10]; first compound 0.01581 µM
  relative viability: 0.634
[10]; first compound 0.05 µM
  relative viability: 0.696
[10]; first compound 0.1581 µM
  relative viability: 0.735
[10]; first compound 0.5 µM
  relative viability: 0.666
[11]; first compound 0.005 µM
  relative viability: 0.507
[11]; first compound 0.01581 µM
  relative viability: 0.553
[11]; first compound 0.05 µM
  relative viability: 0.579
[11]; first compound 0.1581 µM
  relative viability: 0.569
[11]; first compound 0.5 µM
  relative viability: 0.582
[12]; first compound 0.005 µM
  relative viability: 0.398
[12]; first compound 0.01581 µM
  relative viability: 0.429
[12]; first compound 0.05 µM
  relative viability: 0.397
[12]; first compound 0.1581 µM
  relative viability: 0.423
[12]; first compound 0.5 µM
  relative viability: 0.395
[13]; first compound 0.005 µM
  relative viability: 0.486
[13]; first compound 0.01581 µM
  relative viability: 0.546
[13]; first compound 0.05 µM
  relative viability: 0.553
[13]; first compound 0.1581 µM
  relative viability: 0.516
[13]; first compound 0.5 µM
  relative viability: 0.528
[14]; first compound 0.005 µM
  relative viability: 0.554
[14]; first compound 0.01581 µM
  relative viability: 0.585
[14]; first compound 0.05 µM
  relative viability: 0.59
[14]; first compound 0.5 µM
  relative viability: 0.632
[15]; first compound 0.005 µM
  relative viability: 0.727
[15]; first compound 0.01581 µM
  relative viability: 0.824
[15]; first compound 0.05 µM
  relative viability: 0.783
[15]; first compound 0.1581 µM
  relative viability: 0.752
[15]; first compound 0.5 µM
  relative viability: 0.809
[16]; first compound 0.005 µM
  relative viability: 0.418
[16]; first compound 0.01581 µM
  relative viability: 0.401
[16]; first compound 0.05 µM
  relative viability: 0.436
[16]; first compound 0.1581 µM
  relative viability: 0.373
[16]; first compound 0.5 µM
  relative viability: 0.375
[17]; first compound 0.005 µM
  relative viability: 0.721
[17]; first compound 0.01581 µM
  relative viability: 0.82
[17]; first compound 0.05 µM
  relative viability: 0.776
[17]; first compound 0.1581 µM
  relative viability: 0.689
[17]; first compound 0.5 µM
  relative viability: 0.655
[18]; first compound 0.005 µM
  relative viability: 0.443
[18]; first compound 0.01581 µM
  relative viability: 0.656
[18]; first compound 0.05 µM
  relative viability: 0.588
[18]; first compound 0.1581 µM
  relative viability: 0.611
[18]; first compound 0.5 µM
  relative viability: 0.501
[19]; first compound 0.005 µM
  relative viability: 0.402
[19]; first compound 0.01581 µM
  relative viability: 0.375
[19]; first compound 0.05 µM
  relative viability: 0.468
[19]; first compound 0.1581 µM
  relative viability: 0.411
[19]; first compound 0.5 µM
  relative viability: 0.382
[20]; first compound 0.005 µM
  relative viability: 0.58
[20]; first compound 0.01581 µM
  relative viability: 0.549
[20]; first compound 0.05 µM
  relative viability: 0.629
[20]; first compound 0.1581 µM
  relative viability: 0.376
[20]; first compound 0.5 µM
  relative viability: 0.532
[21]; first compound 0.005 µM
  relative viability: 0.361
[21]; first compound 0.01581 µM
  relative viability: 0.362
[21]; first compound 0.05 µM
  relative viability: 0.369
[21]; first compound 0.1581 µM
  relative viability: 0.306
[21]; first compound 0.5 µM
  relative viability: 0.386
[22]; first compound 0.005 µM
  relative viability: 0.554
[22]; first compound 0.01581 µM
  relative viability: 0.71
[22]; first compound 0.05 µM
  relative viability: 0.731
[22]; first compound 0.1581 µM
  relative viability: 0.492
[22]; first compound 0.5 µM
  relative viability: 0.524
